What was measured:
YT (IL-2 2.5 ng/mL) [1] = experiment: percent inhibition of viability; higher = more inhibition; conditions: 72 h
NK-YS (IL-2 2.5 ng/mL) [2] = experiment: as above; conditions: 72 h
DERL-7 (IL-2 2.5 ng/mL) [3] = experiment: as above; conditions: 72 h
KAI3 (IL-2 2.5 ng/mL) [4] = experiment: as above; conditions: 72 h
[5] = tested on: normal primary NK cells, pool 1 (3 donors) (IL-2 2.5 ng/mL); experiment: as above; conditions: 72 h
[6] = tested on: normal primary NK cells, pool 3 (3 donors) (IL-2 2.5 ng/mL); experiment: as above; conditions: 72 h
SNK-6 (IL-2 2.5 ng/mL) [7] = experiment: as above; conditions: 72 h
NKL (IL-2 2.5 ng/mL) [8] = experiment: as above; conditions: 72 h
IMC-1 (IL-2 20 ng/mL) [9] = experiment: as above; conditions: 72 h
[10] = tested on: normal primary NK cells, pool 1 (3 donors), resting (IL-2 0 ng/mL); experiment: as above; conditions: 72 h
[11] = tested on: normal primary NK cells, pool 2 (3 donors) (IL-2 2.5 ng/mL); experiment: as above; conditions: 72 h
NK-92 (IL-2 2.5 ng/mL) [12] = experiment: as above; conditions: 72 h
KHYG-1 (IL-2 2.5 ng/mL) [13] = experiment: as above; conditions: 72 h
[14] = tested on: normal NK cells expanded with K562-aAPC; experiment: as above; conditions: 72 h, IL-2 2.5 ng/mL
Procedure: (§1)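 Drug sensitivity and resistance testing on K562-aAPC-expanded normal NK cells: 5 concentrations (10-fold steps over a 10,000-fold range), 72 h at 37 °C, viability by CellTiter-Glo normalised to DMSO and benzethonium chloride controls; DSS from the fitted curve.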

[15] = tested on: normal NK cells expanded with K562-aAPC; experiment: drug sensitivity score (DSS) (DSS units); higher = more sensitive; extreme values may be limits of the assay; conditions: 72 h; IL-2 2.5 ng/mL
Procedure: as §1

YT (IL-2 2.5 ng/mL) [16] = experiment: as above; conditions: 72 h
NK-YS (IL-2 2.5 ng/mL) [17] = experiment: as above; conditions: 72 h
DERL-7 (IL-2 2.5 ng/mL) [18] = experiment: as above; conditions: 72 h
KAI3 (IL-2 2.5 ng/mL) [19] = experiment: as above; conditions: 72 h
[20] = tested on: normal primary NK cells, pool 1 (3 donors) (IL-2 2.5 ng/mL); experiment: as above; conditions: 72 h
[21] = tested on: normal primary NK cells, pool 3 (3 donors) (IL-2 2.5 ng/mL); experiment: as above; conditions: 72 h
SNK-6 (IL-2 2.5 ng/mL) [22] = experiment: as above; conditions: 72 h
NKL (IL-2 2.5 ng/mL) [23] = experiment: as above; conditions: 72 h
IMC-1 (IL-2 20 ng/mL) [24] = experiment: as above; conditions: 72 h
[25] = tested on: normal primary NK cells, pool 1 (3 donors), resting (IL-2 0 ng/mL); experiment: as above; conditions: 72 h
[26] = tested on: normal primary NK cells, pool 2 (3 donors) (IL-2 2.5 ng/mL); experiment: as above; conditions: 72 h
NK-92 (IL-2 2.5 ng/mL) [27] = experiment: as above; conditions: 72 h
KHYG-1 (IL-2 2.5 ng/mL) [28] = experiment: as above; conditions: 72 h

CCNC(=O)CCC/C=C\C[C@@H]1[C@@H](/C=C/[C@@H](O)CCc2ccccc2)[C@H](O)C[C@@H]1O [Bimatoprost] (max concentration tested 5500 nM)
percent inhibition of viability [%]
Conditions	0.55 nM	5.5 nM	55 nM	550 nM	5500 nM
DERL-7 (IL-2 2.5 ng/mL) [3]	-5.3	-2.53	-3.35	-10.4	-4.94
IMC-1 (IL-2 20 ng/mL) [9]	-1.84	-3.91	-0.72	-4.98	-0.62
KAI3 (IL-2 2.5 ng/mL) [4]	-9.15	-10.1	-8.67	-6.35	-7.76
KHYG-1 (IL-2 2.5 ng/mL) [13]	-6.16	-6.81	-5.76	-5.66	-2.75
NK-92 (IL-2 2.5 ng/mL) [12]	-8.7	-4.9	-11.6	-5.65	-8.03
NK-YS (IL-2 2.5 ng/mL) [2]	-3.18	-8.08	-6.49	-9.97	-6.34
NKL (IL-2 2.5 ng/mL) [8]	-10.6	-7.92	-13.9	-14.1	7.05
SNK-6 (IL-2 2.5 ng/mL) [7]	17.6	0.29	2.65	-15.2	-3.36
YT (IL-2 2.5 ng/mL) [1]	-1.68	-3.7	-5.41	-3.35	-5.44
[5]	-4.1	-2.93	-7.66	5.27	3.45
[6]	-15.9	-13.5	-18	-10.8	-6.94
[10]	5.81	-2	-9.81	4.1	6.67
[11]	-11.3	-11.2	-11.5	-10.1	-6.11
[14]	-0.32	-7.8	-7.43	-6.39	-7.75

Conditions	drug sensitivity score
DERL-7 (IL-2 2.5 ng/mL) [18]	0.89
IMC-1 (IL-2 20 ng/mL) [24]	0.89
KAI3 (IL-2 2.5 ng/mL) [19]	0.89
KHYG-1 (IL-2 2.5 ng/mL) [28]	0.89
NK-92 (IL-2 2.5 ng/mL) [27]	0.89
NK-YS (IL-2 2.5 ng/mL) [17]	0.89
NKL (IL-2 2.5 ng/mL) [23]	0
SNK-6 (IL-2 2.5 ng/mL) [22]	0
YT (IL-2 2.5 ng/mL) [16]	0.89
[15]	0.89
[20]	0
[21]	0.89
[25]	0
[26]	0.89

COc1cc(Nc2c(C#N)cnc3cc(OCCCN4CCN(C)CC4)c(OC)cc23)c(Cl)cc1Cl [Bosutinib] (max concentration tested 10000 nM)
percent inhibition of viability [%]
Conditions	1 nM	10 nM	100 nM	1000 nM	10000 nM
DERL-7 (IL-2 2.5 ng/mL) [3]	1.55	6.21	8.26	37.4	100
IMC-1 (IL-2 20 ng/mL) [9]	-6.46	0.66	-10.5	-9.81	96.6
KAI3 (IL-2 2.5 ng/mL) [4]	8.38	12	3.26	31.6	97.2
KHYG-1 (IL-2 2.5 ng/mL) [13]	-3.69	1.01	-1.05	26.2	96.2
NK-92 (IL-2 2.5 ng/mL) [12]	-0.68	-2.8	-0.62	22.4	97.7
NK-YS (IL-2 2.5 ng/mL) [2]	-4.4	-3.22	-2.75	2.53	96.7
NKL (IL-2 2.5 ng/mL) [8]	-12.2	-8.59	-6.88	0.83	95.5
SNK-6 (IL-2 2.5 ng/mL) [7]	6.03	14.6	-18.2	-17.4	99.7
YT (IL-2 2.5 ng/mL) [1]	1.55	1.24	2.37	15.2	97.2
[5]	-9.61	-1.56	4.38	20.6	100
[6]	0.05	-0.81	10.8	-5.33	99.8
[10]	-6.19	-3.78	1.15	58.5	99.3
[11]	-12.2	-5.59	-2.85	25.5	98.1
[14]	4.72	2.21	15.7	3.76	99.9

Conditions	drug sensitivity score
DERL-7 (IL-2 2.5 ng/mL) [18]	9.96
IMC-1 (IL-2 20 ng/mL) [24]	4.71
KAI3 (IL-2 2.5 ng/mL) [19]	9.81
KHYG-1 (IL-2 2.5 ng/mL) [28]	9.26
NK-92 (IL-2 2.5 ng/mL) [27]	8.9
NK-YS (IL-2 2.5 ng/mL) [17]	5.71
NKL (IL-2 2.5 ng/mL) [23]	5.43
SNK-6 (IL-2 2.5 ng/mL) [22]	4.57
YT (IL-2 2.5 ng/mL) [16]	7.9
[15]	6.07
[20]	8.82
[21]	5.14
[25]	12.4
[26]	9.3

CCC/C=C/C=C/C(=O)O[C@H]1/C(=C/C(=O)OC)C[C@H]2C[C@H]([C@@H](C)O)OC(=O)C[C@H](O)C[C@@H]3C[C@H](OC(C)=O)C(C)(C)[C@](O)(C[C@@H]4C/C(=C/C(=O)OC)C[C@H](/C=C/C(C)(C)[C@]1(O)O2)O4)O3 [Bryostatin 1] (max concentration tested 100 nM)
percent inhibition of viability [%]
Conditions	0.01 nM	0.1 nM	1 nM	10 nM	100 nM
DERL-7 (IL-2 2.5 ng/mL) [3]	-2.14	-19.4	24.4	20	35.2
IMC-1 (IL-2 20 ng/mL) [9]	-3.95	3.27	75.6	68.3	62.7
KAI3 (IL-2 2.5 ng/mL) [4]	0.24	5.23	4.64	21.7	-6.8
KHYG-1 (IL-2 2.5 ng/mL) [13]	1.17	35.4	102	106	99.2
NK-92 (IL-2 2.5 ng/mL) [12]	-10.7	25.5	87.5	103	95.4
NK-YS (IL-2 2.5 ng/mL) [2]	-5.4	-9.97	-7.91	1.59	-4.21
NKL (IL-2 2.5 ng/mL) [8]	-18.8	-58.9	-74.9	-67.5	-81.5
SNK-6 (IL-2 2.5 ng/mL) [7]	13.4	39.5	64.4	35.5	18
YT (IL-2 2.5 ng/mL) [1]	2.73	-2.33	-3.22	1.88	1.24
[5]	-10.4	-18.6	-14.9	-23.1	-10.7
[6]	-5.42	-30.1	-40.2	-35	-20.7
[10]	-14.3	14.4	-0.07	-6.68	5.47
[11]	-15.1	-25.1	-48.2	-38	-37.6
[14]	-6.34	-41.9	-55.2	-31.9	-30.3

Conditions	drug sensitivity score
DERL-7 (IL-2 2.5 ng/mL) [18]	8.96
IMC-1 (IL-2 20 ng/mL) [24]	23.9
KAI3 (IL-2 2.5 ng/mL) [19]	0
KHYG-1 (IL-2 2.5 ng/mL) [28]	35.4
NK-92 (IL-2 2.5 ng/mL) [27]	31.7
NK-YS (IL-2 2.5 ng/mL) [17]	0
NKL (IL-2 2.5 ng/mL) [23]	0
SNK-6 (IL-2 2.5 ng/mL) [22]	14.9
YT (IL-2 2.5 ng/mL) [16]	0
[15]	0
[20]	0
[21]	0
[25]	0
[26]	0

Source: the supplement of paper PMC5908809
